# Data taken from patent EP0623616A1, “Heterocyclic compounds and process for the preparation thereof” (EGIS GYOGYSZERGYAR RT., priority 1993, dated 1994).
# Like-named read-outs stand apart in the source and are kept apart here.
# Key:
# Male Wistar rats [1] = assay: Vogel test (drinking conflict test); assay type: in vivo; conditions: for MED: minimum effective dose, increase of tolerated shocks, rats, intraperitoneally half an hour before testing
# Protocol: Male Wistar rats of 160 to 180 g body weight were kept free of food and drinking water for 24 and 48 hours, respectively. Test and carrier substances were administered intraperitoneally half an hour before testing. Animals within the experimental chamber were provided with drinking water through an inserted tube. After the animals' each twenty lapping for water the device emitted a 2 mA intensity electric shock through the drinking tube. During 5 minutes the shocks tolerated by the animals in order to quench their thirst were counted. The effect of treatment was expressed as the % increase of the tolerated shocks. The minimum effective dose (MED) was determined for each test compound [Vogel, J.R., Beer, B., Clody, D.E.:Psychopharmacologia (Berl.)21, 1(1971)].
# [2] = tested on: Male rats belonging to the Spraghe Dawley strain; assay: Elevated plus maze test on rat; assay type: in vivo; conditions: for MED: p.o., minimum effective dose causing a significant increase of time spent on the open arms, rats, pretreatment 60 minutes
# Protocol: The test was carried out with the aid of a wooden plus-shaped maze elevated to a height of 50 cm. Two arms (100 cm long and 15 cm wide) - opposite to one another - were enclosed up to a height of 40 cm along their longer sides and at the end. The other two arms were without walls (open arms). The central 15x15 cm part was open. Male rats belonging to the Spraghe Dawley strain and weighing 220 to 260 g were used as test animals. After pretreatment lasting 60 minutes the animals were placed into the central part of the maze. During the 5 minutes observation period the following parameters were recorded: • time spent on the open arms • time spent on the closed arms • number of open arm entries • number of closed arm entries.
# The drug effect was expressed as percent increase of the time spent on the open arms and number of open arm entries. The minimum effective dose which caused a significant increase of the time spent on the open arms was calculated for every substance [Pelow, S., Chopin, P., File, S.E., Briley, M.:J. Neurosci. Methods 14, 149-167 (1985)].
# mice [3] = assay: Effect on the spontaneous motor activity (method of Borsy et al., 10-channel Dews system); assay type: in vivo; conditions: for Mobility inhibition ID50: treated orally, 1 hour after treatment, interruptions of infrared beam within 30 minutes
# Protocol: The test was carried out according to the method of Borsy et al. Groups consisting of 3 mice each were treated orally with different doses of the compounds to be tested 1 hour after treatment with the test compound or the vehicle the animals were placed into a 10-channel Dews system equipment. In this equipment the number of interruptions of infrared beam within 30 minutes was counted. From these date 50% inhibiting doses (IC₅₀) were determined with the aid of a line of regression [Borsy, J., Csanyi, E., Lazar, I.: Arch. Int. Pharmacodyn. 124, a (1960)].
# Male Wistar rats [4] = assay: Conditioned avoidance response inhibition (shuttle box); assay type: in vivo; conditions: for Conditioned relfex ID50: rats, 50% inhibiting dose, dosing one hour before the measurement, oral
# Protocol: The antipsychotic (neuroleptic) effect was measured by the inhibition of the learned conditioned avoidance reflex. The male Wistar rats used for the study were of 120 to 150 g body weight at the beginning of learning. A shuttle box was used as experimental device, it consisted of two parts, 24x24,5x23 cm each, separated by a wall with a 6x9 cm gate. In response to a suitable warning stimulus, in order to avoid the punishing (unconditioned) stimulus, animals within the box passed through the gate from one part to the other. The warning, i.e. conditioned stimulus (CS), a white light (1 Hz) blinking for 15 seconds, was applied at the actual place of the animal. The unconditioned stimulus (US), in form of 0,6 mA intensity electric shock, was randomly applied to the paw during the last 5 seconds of the conditioned stimulus. The animal's movement during the CS and US from one part of the box to the other was defined as avoidance and escape response, respectively. Both responses ceased the actual stimulus and stopped the trial. The time elapsed until the next trial (intertrial interval, ITI) was 15 seconds. While one experiment was carried out daily, an experiment consisted of 80 trials. Learning efficiency was expresses as percentage of the successful to the total avoidances. Effect of the neuroleptic drugs was examined in animals with stabilized conditioned reflexes and with at least 75% learning efficiency. Dosing was carried out once a week, one hour before the measurement in the shuttle box. To calculate the neuroleptic effect (50% inhibiting dose, ID₅₀), the results obtained after the treatment were compared to those obtained on the previous day (controls).
# mice [5] = conditions: value taken from literature (Drugs of Future 10(II), 731 (1985)); cited from earlier work
# Male Wistar rats [6] = conditions: value taken from literature (J. Med. Chem. 29(3), 363(1986); Drugs of Future 10(II), 731(1985)); cited from earlier work
# [7] = Vogel test, ratio of MED values
Compound,MED (Male Wistar rats [1]),MED [2],Mobility inhibition ID50 (mice [3]),Conditioned relfex ID50 (Male Wistar rats [4]),further results
"8-{4-[4-(1,2-Benzisothiazol-3-yl)-1-piperazinyl]-but-2-ynyl}-8-azaspiro[4,5]decane-7,9-dione [Example 1]",5.0 mg/kg,"2,5 mg/kg",ineffective(>100) mg/kg,"30,0 mg/kg","effectiveness relative to chlorodiazepoxide (Male Wistar rats [1]; [7]): twice as effective; times as effective as Meprobamate (Male Wistar rats [1]; [7]): 5; effectiveness relative to Ritanserin ([2]; elevated plus maze, ratio of MED values): twice as effective; influence on the spontaneous motor activity (mice [3]; result in words): does not influence the spontaneous motor activity; influence on the conditioned avoidance response (Male Wistar rats [4]; up to an oral dose of 30 mg/kg, result in words): does not influence the conditioned avoidance response"
CNC1=Nc2ccc(Cl)cc2C(c2ccccc2)=[N+]([O-])C1 [Chlorodiazepoxide],10.0 mg/kg,–,"56,0 mg/kg",–,–
CN(C)CCCN1c2ccccc2Sc2ccc(Cl)cc21 [Chloropromazine],–,–,–,"13,2 mg/kg",–
CN1C(=O)CN=C(c2ccccc2)c2cc(Cl)ccc21 [Diazepam],–,–,"23,0 mg/kg",–,–
O=C(CCCN1CCC(O)(c2ccc(Cl)cc2)CC1)c1ccc(F)cc1 [Haloperidol],–,–,–,"0,6 mg/kg",–
CCCC(C)(COC(N)=O)COC(N)=O [Meprobamate],25.0 mg/kg,">10,0 mg/kg",–,–,–
Cc1nc2sccn2c(=O)c1CCN1CCC(=C(c2ccc(F)cc2)c2ccc(F)cc2)CC1 [Ritanserin],–,"5,0 mg/kg",–,–,–
"O=C1CC2(CCCC2)CC(=O)N1CCCCN1CCN(c2nsc3ccccc23)CC1 [Thiaspiron, thiaspiron]",–,–,–,–,"Mobility inhibition ID50 (mice [5]): 8,4 mg/kg; Conditioned relfex ID50 (Male Wistar rats [6]): 10,5 mg/kg"
